Counter-ions that a name gives are not always drawn. Like-named read-outs stand apart in the source and are kept apart here.
Legend:
postoperative pain [1] = settings: intravenous; for analgesic response (change in VAS pain rating): nalbuphine hydrochloride salt 2.5 mg alone
Text: In this clinical trial 67 patients underwent standardized surgery by the same oral surgeon for removal of third molar teeth, including at least one bony impacted mandibular third molar. Prior to surgery, patients received intravenous diazepam, nitrous oxide, and a local anesthetic (mepivacaine without vasoconstrictor to obtain a nerve block of short duration). After surgery, each patient was randomly assigned to receive an injection of nalbuphine hydrochloride salt (Abbott Laboratories, Abbott Park, Ill.) 2.5 mg either alone or combined with naloxone hydrochloride salt (0.4 mg) in an open injection, double-blinded fashion, through an intravenous line.
Baseline pain intensity was defined as the last VAS pain rating before administration of the test drug. VAS pain ratings were recorded at 20 minute intervals beginning ten minutes after administration of the test drug. The duration of the experiment was two hours and fifty minutes, measured from the time of administration of the test drug. For each patient, the magnitude of the analgesic (or anti-analgesic) response was defined as the difference between the pain rating at each time point following test drug administration and the baseline VAS pain rating.

postoperative pain [2] = settings: nalbuphine hydrochloride salt 2.5 mg alone; both sexes; intravenous
Experimental: In this clinical trial, 65 patients underwent standardized surgery by the same oral surgeon for removal of third molar teeth, including at least one bony impacted mandibular third molar. Prior to surgery, patients received intravenous diazepam, nitrous oxide, and a local anesthetic (mepivacaine without vasoconstrictor to obtain a nerve block of short duration). After surgery, each patient was randomly assigned to receive an injection of 2.5 mg of nalbuphine hydrochloride salt (Abbott Laboratories, Abbott Park, Ill.) either alone or combined with 0.2 mg naloxone hydrochloride salt in an open injection, double-blinded fashion, through an intravenous line.
Baseline pain intensity was defined as the last VAS pain rating before administration of the test drug. VAS pain ratings were recorded at 20 minute intervals beginning ten minutes after administration of the test drug. The duration of the experiment, measured from the time of administration of the test drug, was two hours and fifty minutes. For each patient, the magnitude of the analgesic (or anti-analgesic) response was defined as the difference between the pain rating at each time point following test drug administration and the baseline VAS pain rating.

## Oc1ccc2c3c1O[C@H]1[C@@H](O)CC[C@@]4(O)[C@@H](C2)N(CC2CCC2)CC[C@]314 [nalbuphine hydrochloride salt, nalbuphine]
Postoperative pain [1]; FIG. 4a, women
  analgesic response (change in VAS pain rating): induced brief analgesia
Postoperative pain [1]; FIG. 4b, men
  analgesic response (change in VAS pain rating): failed to produce significant analgesia
Postoperative pain [1]; women, nalbuphine hydrochloride salt 2.5 mg
  anti-analgesia: apparently insufficient to produce anti-analgesia
Postoperative pain [2]
  analgesic effect: initial analgesic effect of administration of nalbuphine alone observed in both sexes
